Test results as given in patent US20120083486A1, “KIT, COMPOSITION, PRODUCT OR MEDICAMENT FOR TREATING COGNITIVE IMPAIRMENT” (ZENYAKU KOGYO KABUSHIKIKAISHA, priority 2008, published 2012).

Key:
[1] = tested on: extracellular levels of acetylcholine (ACh) in a rat hippocampus; test: extracellular levels of acetylcholine (ACh) in rat hippocampus (microdialysis, HPLC-ECD); type: in vivo; details: alone, compared with 1% CMC group
Experimental: Food and water were provided ad libitum. All animal care and treatment was conducted in accordance with the Guidelines for the Care and Use of Laboratory Animals, established at the Central Research Laboratory, Zenyaku Kogyo Co., Ltd.

[2] = tested on: scopolamine-induced cognitive impairment; test: passive avoidance task, scopolamine-induced cognitive impairment in mice; type: in vivo; details: alone, compared with 1% CMC and scopolamine group
Experimental: Eight to nine week old male ICR strain mice (Charles River Laboratories Japan, Inc.) were used in the experiment. They were housed in a cage in groups of 3 or 4 mice, in a room maintained at around 22 degree C. under 12 hour light/dark cycles. Food and water were provided ad libitum. All animal care and treatment was conducted in accordance with the Guidelines for the Care and Use of Laboratory Animals, established at the Central Research Laboratory, Zenyaku Kogyo Co., Ltd.
Compound 1 and donepezil were suspended in 1% carboxymethyl cellulose (CMC). […] For the coadministration studies of Compound 1 and donepezil, both drug suspensions were mixed together and this mixed suspension was […]. All drugs were prepared immediately before use and orally administered at a dosage of 10 ml/kg.
The passive avoidance apparatus (Neuroscience Inc.) consisted of an illuminated chamber and a larger dark chamber. Two chambers were separated by a guillotine door. Oral administration of compound 1 at doses of 0.0001 mg/kg or 0.001 mg/kg and/or donepezil at doses of 0.01 and 0.1 mg/kg was given 60 min before the acquisition trial. […] The matched control group only received the vehicle. During the acquisition trial, each mouse was placed in the illuminated chamber. Immediately after the entry into the dark chamber, the door was closed and an inescapable scrambled electric shock (100 V, 0.4 mA, 1.5 sec) was delivered through the floor grid. Twenty-four hours later, each mouse was placed in the illuminated chamber for retention trial. The interval between placement in the illuminated chamber and entry into the dark chamber was measured as step through latency (maximum 300 seconds).
A P level of <0.05 was considered indicative of statistical significance for the tests.

Row | Structure (SMILES) | extracellular level of ACh in the hippocampus ([1]; compound 1 0.001 mg/kg oral) | step-through latency in retention trial ([2]; compound 1 0.0001 mg/kg oral) | step-through latency in retention trial ([2]; compound 1 0.001 mg/kg oral, P<0.05) | extracellular level of ACh in the hippocampus ([1]; donepezil 1 mg/kg oral) | step-through latency in retention trial ([2]; donepezil 0.01 mg/kg oral) | step-through latency in retention trial ([2]; donepezil 0.1 mg/kg oral, P<0.05)
1 | O=C1N=C2C=CC=CN2C12Cc1ccccc1C2 [compound 1, spiro[imidazo[1,2-a]pyridin-2(3H)-one-3,2′-indan]] | did not significantly increase | did not significantly prolong the step-through latency | prolonged the step-through latency |  |  | 
2 | COc1cc2c(cc1OC)C(=O)C(CC1CCN(Cc3ccccc3)CC1)C2 (stereo not drawn) [donepezil] |  |  |  | did not significantly increase | did not significantly prolong the step-through latency | prolonged the step-through latency
